# Results published in patent US12384808B2, “Modulators of TNF-α activity” (Forward Therapeutics, Inc., priority 2022, dated 2025).
# Biological target: TNFα (Homo sapiens, UniProt P01375)
# Experiment: TNFα Induced HEK Blue Cellular Assay
# Format: cell-based
# Conditions: HEK Blue TNFα reporter cells, TNFα 100 pg/ml, 24 hrs at 37° C., secreted alkaline phosphatase (QUANTI-Blue) read at 620 nm; read-out: IC50 value
# Description: TNFα Induced HEK Blue Cellular Assay
# Test articles were diluted in DMSO and serially diluted into 384 well assay plate (Corning 3765), at final concentrations ranging from […] to 0.5 nM. HEK Blue™ TNFα reporter cells were added at a final density of 10,000 cell per well in assay media [DMEM (Gibco, cat #21063-029), 10% fetal bovine serum (ExcelBio, cat #FND500), 1% Penicillin-Streptomycin (Solarbio, cat #P1400-100]. TNFα (R&D 210-TA-020/CF) was then added to the assay plate at a final concentration of 100 pg/ml. This plate was then incubated for 24 hrs at 37° C. and 5% CO2. Secreted alkaline phosphatase expression was then measured using QUANTI-Blue™ (Invivogen), according to manufacturer instructions and read on an Envision microplate reader at 620 nm.
# Inhibition data for test compound over a range of concentration was plotted as percentage inhibition of the test compound (100%=maximum inhibition). IC50 values were determined after correcting for background [(sample read−mean of low control)/(mean of high control−mean of low control)] where by the low control is DMSO without stimulation and high control is DMSO with stimulation. The IC50 is defined as the concentration of test compound which produces 50% inhibition and was quantified using the 4 parameter logistic equation to fit the data.
# Chain of TNFα (P01375 77-233 limits assumed): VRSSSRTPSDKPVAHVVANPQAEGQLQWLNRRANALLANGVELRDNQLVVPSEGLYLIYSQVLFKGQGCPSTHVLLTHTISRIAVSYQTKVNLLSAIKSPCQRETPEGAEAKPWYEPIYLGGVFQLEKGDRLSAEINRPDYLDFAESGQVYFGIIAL
row,SMILES,IC50 [µM]
1,"CN1C(=O)c2cccc(OC(F)F)c2[C@H]2C[C@@H]1c1nc3ccc(-c4cnc(OCP(C)(C)=O)nc4)cc3n12 [Example 9, (1R,11R)-18-(difluoromethoxy)-5-{2-[(dimethylphosphoryl)methoxy]pyrimidin-5-yl}-12-methyl-2,9,12-triazapentacyclo[9.8.1.0^{2,10}.0^{3,8}.0^{14,19}]icosa-3(8),4,6,9,14(19),15,17-heptaen-13-one]",0.1 to 1
2,"CP(C)(=O)COc1ccc(-c2ccc3nc4n(c3c2)[C@@H]2C[C@H]4NC(=O)c3cccc(OC(F)F)c32)cn1 [Example 11, (1R,11R)-18-(difluoromethoxy)-5-{6-[(dimethylphosphoryl)methoxy]pyridin-3-yl}-2,9,12-triazapentacyclo[9.8.1.0^{2,10}.0^{3,8}.0^{14,19}]icosa-3(8),4,6,9,14(19),15,17-heptaen-13-one]",1 to 10
3,"CN1C(=O)c2cccc(OC(F)F)c2[C@H]2C[C@@H]1c1nc3ccc(-c4ccc(P(C)(C)=O)c(F)c4)cc3n12 [Example 14, (1R,11R)-18-(difluoromethoxy)-5-[4-(dimethylphosphoryl)-3-fluorophenyl]-12-methyl-2,9,12-triazapentacyclo[9.8.1.0^{2,10}.0^{3,8}.0^{14,19}]icosa-3(8),4,6,9,14(19),15,17-heptaen-13-one]",< 0.1
4,"[2H]C([2H])([2H])N1C(=O)c2cccc(OC(F)F)c2[C@H]2C[C@@H]1c1nc3ccc(-c4ccc(OCP(C)(C)=O)nc4)cc3n12 [Example 15, (7R,14R)-1-(difluoromethoxy)-11-(6-((dimethylphosphoryl)methoxy)pyridin-3-yl)-6-(methyl-d3)-6,7-dihydro-7,14-methanobenzo[f]benzo[4,5]imidazo[1,2-a][1,4]diazocin-5(14H)-one]",< 0.1
5,"[2H]C([2H])([2H])N1C(=O)c2cccc(OC(F)F)c2[C@H]2C[C@@H]1c1nc3ccc(-c4ccc(P(C)(C)=O)nc4)cc3n12 [Example 17, (7R,14R)-1-(difluoromethoxy)-11-(6-(dimethylphosphoryl)pyridin-3-yl)-6-(methyl-d3)-6,7-dihydro-7,14-methanobenzo[f]benzo[4,5]imidazo[1,2-a][1,4]diazocin-5(14H)-one]",< 0.1
6,"CN1C(=O)c2cccc(OC(F)F)c2[C@H]2C[C@@H]1c1nc3ccc(-c4ccc(CP(C)(C)=O)nc4)cc3n12 [Example 22, (1R,11R)-18-(difluoromethoxy)-5-{6-[(dimethylphosphoryl)methyl]pyridin-3-yl}-12-methyl-2,9,12-triazapentacyclo[9.8.1.0^{2,10}.0^{3,8}.0^{14,19}]icosa-3(8),4,6,9,14(19),15,17-heptaen-13-one]",< 0.1
7,"CN1C(=O)c2cccc(OC(F)F)c2[C@H]2C[C@@H]1c1nc3ccc(-c4cnc(OCP(C)(C)=O)s4)cc3n12 [Example 25, (1R,11R)-18-(difluoromethoxy)-5-{2-[(dimethylphosphoryl)methoxy]-1,3-thiazol-5-yl}-12-methyl-2,9,12-triazapentacyclo[9.8.1.0^{2,10}.0^{3,8}.0^{14,19}]icosa-3(8),4,6,9,14(19),15,17-heptaen-13-one]",< 0.1
8,"CN1C(=O)c2cccc(OC(F)F)c2[C@H]2C[C@@H]1c1nc3ccc(-c4ccc(P(C)(C)=O)cc4F)cc3n12 [Example 28, (1R,11R)-18-(difluoromethoxy)-5-[4-(dimethylphosphoryl)-2-fluorophenyl]-12-methyl-2,9,12-triazapentacyclo[9.8.1.0^{2,10}.0^{3,8}.0^{14,19}]icosa-3(8),4,6,9,14(19),15,17-heptaen-13-one]",< 0.1
9,"Cc1cc(P(C)(C)=O)ccc1-c1ccc2nc3n(c2c1)[C@@H]1C[C@H]3N(C)C(=O)c2cccc(OC(F)F)c21 [Example 29, (1R,11R)-18-(difluoromethoxy)-5-[4-(dimethylphosphoryl)-2-methylphenyl]-12-methyl-2,9,12-triazapentacyclo[9.8.1.0^{2,10}.0^{3,8}.0^{14,19}]icosa-3(8),4,6,9,14(19),15,17-heptaen-13-one]",< 0.1
10,"CN(CP(C)(C)=O)c1ccc(-c2ccc3nc4n(c3c2)[C@@H]2C[C@H]4N(C)C(=O)c3cccc(OC(F)F)c32)cn1 [Example 30, (1R,11R)-18-(difluoromethoxy)-5-(6-{[(dimethylphosphoryl)methyl](methyl)amino}pyridin-3-yl)-12-methyl-2,9,12-triazapentacyclo[9.8.1.0^{2,10}.0^{3,8}.0^{14,19}]icosa-3(8),4,6,9,14(19),15,17-heptaen-13-one]",< 0.1

# Now from value to compound:
row,IC50 [µM],SMILES
1,0.1 to 1,"CN1C(=O)c2cccc(OC(F)F)c2[C@H]2C[C@@H]1c1nc3ccc(-c4cnc(P(C)(C)=O)nc4)cc3n12 [Example 8, (1R,11R)-18-(difluoromethoxy)-5-[2-(dimethylphosphoryl)pyrimidin-5-yl]-12-methyl-2,9,12-triazapentacyclo[9.8.1.0^{2,10}.0^{3,8}.0^{14,19}]icosa-3(8),4,6,9,14(19),15,17-heptaen-13-one]"
2,< 0.1,"CN1C(=O)c2cccc(OC(F)F)c2[C@H]2C[C@@H]1c1nc3ccc(-c4cnc(OCP(C)(C)=O)c(F)c4)cc3n12 [Example 10, (1R,11R)-18-(difluoromethoxy)-5-{6-[(dimethylphosphoryl)methoxy]-5-fluoropyridin-3-yl}-12-methyl-2,9,12-triazapentacyclo [9.8.1.0^{2,10}.0^{3,8}.0^{14,19}]icosa-3(8),4,6,9,14(19),15,17-heptaen-13-one]"
3,1 to 10,"CP(C)(=O)COc1ncc(-c2ccc3nc4n(c3c2)[C@@H]2C[C@H]4NC(=O)c3cccc(OC(F)F)c32)cn1 [Example 12, (1R,11R)-18-(difluoromethoxy)-5-(2-[(dimethylphosphoryl)methoxy]pyrimidin-5-yl)-2,9,12-triazapentacyclo[9.8.1.0^{2,10}.0^{3,8}.0^{14,19}]icosa-3(8),4,6,9,14(19),15,17-heptaen-13-one]"
4,< 0.1,"CN1C(=O)c2cccc(OC(F)F)c2[C@H]2C[C@@H]1c1nc3ccc(-c4ccc(P(C)(C)=O)cc4)cc3n12 [Example 13, (1R,11R)-18-(difluoromethoxy)-5-[4-(dimethylphosphoryl)phenyl]-12-methyl-2,9,12-triazapentacyclo[9.8.1.0^{2,10}.0^{3,8}.0^{14,19}]icosa-3(8),4,6,9,14(19),15,17-heptaen-13-one]"
5,< 0.1,"CN1C(=O)c2cccc(OC(F)F)c2[C@H]2C[C@@H]1c1nc3ccc(-c4cnc(NCP(C)(C)=O)c(F)c4)cc3n12 [Example 16, (1R,11R)-18-(difluoromethoxy)-5-(6-{[(dimethylphosphoryl)methyl]amino}-5-fluoropyridin-3-yl)-12-methyl-2,9,12-triazapentacyclo[9.8.1.0^{2,10}.0^{3,8}.0^{14,19}]icosa-3(8),4,6,9,14(19),15,17-heptaen-13-one]"
6,< 0.1,"CN1C(=O)c2cccc(OC(F)F)c2[C@H]2C[C@@H]1c1nc3ccc(-c4ccc(OCP(C)(C)=O)c(F)c4)cc3n12 [Example 18, (1R,11R)-18-(difluoromethoxy)-5-{4-[(dimethylphosphoryl)methoxy]-3-fluorophenyl}-12-methyl-2,9,12-triazapentacyclo[9.8.1.0^{2,10}.0^{3,8}.0^{14,19}]icosa-3(8),4,6,9,14(19),15,17-heptaen-13-one]"
7,< 0.1,"CCN1C(=O)c2cccc(OC(F)F)c2[C@H]2C[C@@H]1c1nc3ccc(-c4ccc(P(C)(C)=O)nc4)cc3n12 [Example 19, (1R,11R)-18-(difluoromethoxy)-5-[6-(dimethylphosphoryl)pyridin-3-yl]-12-ethyl-2,9,12-triazapentacyclo[9.8.1.0^{2,10}.0^{3,8}.0^{14,19}]icosa-3(8),4,6,9,14(19),15,17-heptaen-13-one]"
8,0.1 to 1,"CN1C(=O)c2cccc(OC(F)F)c2[C@H]2C[C@@H]1c1nc3ccc(-c4cnn(CP(C)(C)=O)c4)cc3n12 [Example 21, (1R,11R)-18-(difluoromethoxy)-5-{1-[(dimethylphosphoryl)methyl]pyrazol-4-yl}-12-methyl-2,9,12-triazapentacyclo[9.8.1.0^{2,10}.0^{3,8}.0^{14,19}]icosa-3(8),4,6,9,14(19),15,17-heptaen-13-one]"
9,< 0.1,"CN1C(=O)c2cccc(OC(F)F)c2[C@H]2C[C@@H]1c1nc3ccc(-c4ccc(NCP(C)(C)=O)nc4)cc3n12 [Example 23, (1R,11R)-18-(difluoromethoxy)-5-(6-{[(dimethylphosphoryl)methyl]amino}pyridin-3-yl)-12-methyl-2,9,12-triazapentacyclo[9.8.1.0^{2,10}.0^{3,8}.0^{14,19}]icosa-3(8),4,6,9,14(19),15,17-heptaen-13-one]"
10,< 0.1,"[2H]C([2H])([2H])N1C(=O)c2cccc(OC(F)F)c2[C@H]2C[C@@H]1c1nc3ccc(-c4ccc(P(C)(C)=O)c(F)c4)cc3n12 [Example 24, (7R,14R)-1-(difluoromethoxy)-11-(4-(dimethylphosphoryl)-3-fluorophenyl)-6-(methyl-d3)-6,7-dihydro-7,14-methanobenzo[f]benzo[4,5]imidazo[1,2-a][1,4]diazocin-5(14H)-one]"
11,< 0.1,"CN1C(=O)c2cccc(OC(F)F)c2[C@H]2C[C@@H]1c1nc3ccc(-c4ccc(P(C)(C)=O)cc4Cl)cc3n12 [Example 27, (1R,11R)-5-[2-chloro-4-(dimethylphosphoryl)phenyl]-18-(difluoromethoxy)-12-methyl-2,9,12-triazapentacyclo[9.8.1.0^{2,10}.0^{3,8}.0^{14,19}]icosa-3(8),4,6,9,14(19),15,17-heptaen-13-one]"
